Measurements: patent US7772271B2 (priority 2004, dated 2010)

Q: Which melting point does the source give for `N#Cc1c(-c2ccc(OC(=O)NC3CCCCC3)cc2)n(CC2CC2)c2cc(OC3CCOCC3)ccc12` [Compound 2785] here?
A: 158 to 160 °C

Q: Which melting point does the source give for `CC(C)NS(=O)(=O)Nc1ccc(-c2c(C#N)c3ccc(OC4CCOCC4)cc3n2C2CCC2)cc1` [Compound 2786] here?
A: 183 to 185 °C

Q: With `C[C@@H](OC(=O)Nc1ccc(-c2c(C#N)c3ccc(C(=O)N4CCCCC4)cc3n2C2CCC2)cc1)C1CC1` [Compound 2787] as the compound, how does the melting point read?
A: 148 to 150 °C

Q: For `C[C@@H](OC(=O)Nc1ccc(-c2c(C#N)c3ccc(C(=O)N4CCCC4)cc3n2C2CCC2)cc1)C1CC1` [Compound 2788], which melting point is on record?
A: 124 to 127 °C

Q: Which melting point does the source give for `N#Cc1c(-c2ccc(OC[C@H]3CCCO3)cc2)n(CC2CC2)c2cc(OC3CCOCC3)ccc12` [Compound 2789] here?
A: 133 to 134 °C

Q: For `N#Cc1c(-c2ccc(OC(=O)N3CCOCC3)cc2)n(CC2CC2)c2cc(OC3CCOCC3)ccc12` [Compound 2790], which melting point is on record?
A: 188 to 189 °C

Q: Which melting point does the source give for `COCCN(C)C(=O)c1ccc2c(C#N)c(-c3ccc(NC(=O)O[C@H](C)C4CC4)cc3)n(C3CCC3)c2c1` [Compound 2791] here?
A: 96 to 98 °C

Q: With `COCCCNC(=O)c1ccc2c(C#N)c(-c3ccc(NC(=O)O[C@H](C)C4CC4)cc3)n(C3CCC3)c2c1` [Compound 2792] as the compound, how does the melting point read?
A: 90 to 94 °C

Q: For `C[C@@H](OC(=O)Nc1ccc(-c2c(C#N)c3ccc(C(=O)N4CCSCC4)cc3n2C2CCC2)cc1)C1CC1` [Compound 2793], which melting point is on record?
A: 148 to 151 °C

Q: With `COCCN(CCOC)C(=O)c1ccc2c(C#N)c(-c3ccc(NC(=O)O[C@H](C)C4CC4)cc3)n(C3CCC3)c2c1` [Compound 2794] as the compound, how does the melting point read?
A: 75 to 77 °C

Q: Which melting point does the source give for `C[C@@H](OC(=O)Nc1ccc(-c2c(C#N)c3cc(OCC4COCO4)ccc3n2C2CCC2)cc1)C(F)(F)F` (stereo partly shown) [Compound 2799] here?
A: 162 to 169 °C

Q: With `CC(C)S(=O)(=O)Nc1ccc(-c2c(C#N)c3ccc(N4CCOCC4)cc3n2C2CCC2)cc1` [Compound 2801] as the compound, how does the melting point read?
A: 220 °C

Q: Which melting point does the source give for `N#Cc1c(-c2ccc(NS(=O)(=O)C3CC3)cc2)n(C2CCC2)c2cc(N3CCOCC3)ccc12` [Compound 2802] here?
A: 222 to 224 °C

Q: With `CCCS(=O)(=O)Nc1ccc(-c2c(C#N)c3ccc(N4CCOCC4)cc3n2C2CCC2)cc1` [Compound 2803] as the compound, how does the melting point read?
A: 203 to 204 °C

Q: Which melting point does the source give for `N#Cc1c(-c2ccc(NC(=O)O[C@@H](c3ccccc3)C(F)(F)F)cc2)n(C2CCC2)c2cc(OCC3OCCO3)ccc12` [Compound 2805] here?
A: 174 to 175 °C

Q: With `N#Cc1c(-c2ccc(NC(=O)O[C@H](c3ccccc3)C(F)(F)F)cc2)n(C2CCC2)c2cc(OCC3OCCO3)ccc12` [Compound 2806] as the compound, how does the melting point read?
A: 175 to 176 °C

Q: Which melting point does the source give for `CCNC(=O)Oc1ccc(-c2c(C#N)c3ccc(OC4CCOCC4)cc3n2C2CCC2)cc1` [Compound 2807] here?
A: 205 to 207 °C

Q: For `CCCNC(=O)Oc1ccc(-c2c(C#N)c3ccc(OC4CCOCC4)cc3n2C2CCC2)cc1` [Compound 2808], which melting point is on record?
A: 153 to 154 °C

Q: With `CC(C)NC(=O)Oc1ccc(-c2c(C#N)c3ccc(OC4CCOCC4)cc3n2C2CCC2)cc1` [Compound 2809] as the compound, how does the melting point read?
A: 185 to 186 °C

Q: For `CCCCNC(=O)Oc1ccc(-c2c(C#N)c3ccc(OC4CCOCC4)cc3n2C2CCC2)cc1` [Compound 2810], which melting point is on record?
A: 137 to 138 °C

Q: For `N#Cc1c(-c2ccc(OC(=O)NC3CCCC3)cc2)n(C2CCC2)c2cc(OC3CCOCC3)ccc12` [Compound 2811], which melting point is on record?
A: 168 to 169 °C

Q: For `N#Cc1c(-c2ccc(OC(=O)NC3CCCCC3)cc2)n(C2CCC2)c2cc(OC3CCOCC3)ccc12` [Compound 2812], which melting point is on record?
A: 187 to 188 °C

Q: For `N#Cc1c(-c2ccc(OC(=O)N3CCOCC3)cc2)n(C2CCC2)c2cc(OC3CCOCC3)ccc12` [Compound 2814], which melting point is on record?
A: 178 to 179 °C

Q: Which melting point does the source give for `N#Cc1c(-c2ccc(OC(=O)N3CCCC3)cc2)n(C2CCC2)c2cc(OC3CCOCC3)ccc12` [Compound 2815] here?
A: 179 to 181 °C

Q: For `CCN(CC)C(=O)Oc1ccc(-c2c(C#N)c3ccc(OC4CCOCC4)cc3n2C2CCC2)cc1` [Compound 2816], which melting point is on record?
A: 137 to 138 °C

Q: For `CC(C)NC(=O)Nc1ccc(-c2c(C#N)c3cc(OC4COCOC4)ccc3n2C2CCC2)cc1` [Compound 2817], which melting point is on record?
A: 179 to 181 °C

Q: With `CC(C)Nc1ccc(-c2c(C#N)c3ccc(O[C@@H]4CCOC4)cc3n2C2CC2)cc1` [Compound 2818] as the compound, how does the melting point read?
A: 185 to 187 °C

Q: Which melting point does the source give for `C[C@@H](NC(=O)Nc1ccc(-c2c(C#N)c3ccc(Oc4ncccn4)cc3n2C2CCC2)cc1)c1ccc(F)cc1` [Compound 2819] here?
A: 150 °C (dec.)

Q: For `C[C@H](NC(=O)Nc1ccc(-c2c(C#N)c3ccc(Oc4ncccn4)cc3n2C2CCC2)cc1)c1ccc(F)cc1` [Compound 2820], which melting point is on record?
A: 152 °C (dec.)

Q: For `COCCN(C)C(=O)c1ccc2c(C#N)c(-c3ccc(NS(=O)(=O)C4CC4)cc3)n(C3CCC3)c2c1` [Compound 2824], which melting point is on record?
A: 201 to 203 °C

Q: For `N#Cc1c(-c2ccc(NS(=O)(=O)C3CC3)cc2)n(C2CCC2)c2cc(C(=O)N3CCOCC3)ccc12` [Compound 2825], which melting point is on record?
A: 125 to 128 °C

Q: For `N#Cc1c(-c2ccc(NS(=O)(=O)C3CC3)cc2)n(C2CCC2)c2cc(C(=O)N3CCSCC3)ccc12` [Compound 2826], which melting point is on record?
A: 205 to 207 °C

Q: Which melting point does the source give for `C[C@@H](OC(=O)Nc1ccc(-c2c(C#N)c3ccc(OCCn4ccnc4)cc3n2C2CC2)cc1)c1ccc(F)cc1` [Compound 2828] here?
A: 225 to 230 °C

Q: For `C[C@@H](OC(=O)Nc1ccc(-c2c(C#N)c3cc(N4CCOCC4)ccc3n2C2CCC2)cc1)c1ccc(F)cc1` [Compound 2829], which melting point is on record?
A: 163 to 168 °C

Q: Which melting point does the source give for `C[C@@H](OC(=O)Nc1ccc(-c2c(C#N)c3ccc(OCCCCn4cncn4)cc3n2C2CCC2)cc1)C(F)(F)F` [Compound 2830] here?
A: 161 to 162 °C

Q: For `C[C@@H](OC(=O)Nc1ccc(-c2c(C#N)c3cc(N4CCOCC4)ccc3n2C2CCC2)cc1)C(F)(F)F` [Compound 2832], which melting point is on record?
A: 197 to 202 °C

Q: With `CNS(=O)(=O)Nc1ccc(-c2c(C#N)c3ccc(OC4CCOCC4)cc3n2C2CCC2)cc1` [Compound 2833] as the compound, how does the melting point read?
A: 218 to 220 °C

Q: Which melting point does the source give for `CCNS(=O)(=O)Nc1ccc(-c2c(C#N)c3ccc(OC4CCOCC4)cc3n2C2CCC2)cc1` [Compound 2834] here?
A: 199 to 201 °C

Q: For `CC[C@H](C)NS(=O)(=O)Nc1ccc(-c2c(C#N)c3ccc(OC4CCOCC4)cc3n2C2CCC2)cc1` [Compound 2835], which melting point is on record?
A: 196 to 198 °C

Q: For `CCC(CC)NS(=O)(=O)Nc1ccc(-c2c(C#N)c3ccc(OC4CCOCC4)cc3n2C2CCC2)cc1` [Compound 2836], which melting point is on record?
A: 193 to 195 °C

Q: With `N#Cc1c(-c2ccc(NS(=O)(=O)NCC3CC3)cc2)n(C2CCC2)c2cc(OC3CCOCC3)ccc12` [Compound 2837] as the compound, how does the melting point read?
A: 210 to 212 °C

Q: For `CCn1ccnc1CCOc1ccc2c(C#N)c(-c3ccc(NC(=O)OC(C)C)cc3)n(C3CCC3)c2c1` [Compound 2842], which melting point is on record?
A: 203 to 212 °C

Q: With `COCCOc1ccc2c(C#N)c(-c3ccc(C(=O)NCCN4CCOCC4)cc3)n(C3CCC3)c2c1` [Compound 2844] as the compound, how does the melting point read?
A: 169 to 170 °C

Q: Which melting point does the source give for `N#Cc1c(-c2ccc(NC(N)=S)cc2)n(C2CCC2)c2cc(OC3COCOC3)ccc12` [Compound 2846] here?
A: 202 to 204 °C

Q: Which melting point does the source give for `CC(C)S(=O)(=O)Nc1ccc(-c2c(C#N)c3cc(Oc4ncccn4)ccc3n2C2CCC2)cc1` [Compound 2848] here?
A: 206 to 207 °C

Q: Which melting point does the source give for `CC(C)NC(=O)Nc1ccc(-c2c(C#N)c3cc(Oc4ncccn4)ccc3n2C2CCC2)cc1` [Compound 2851] here?
A: 140 to 145 °C

Q: With `C[C@@H](OC(=O)Nc1ccc(-c2c(C#N)c3ccc(Oc4ncccn4)cc3n2C2CCC2)cc1)C(F)(F)F` [Compound 2852] as the compound, how does the melting point read?
A: 205 to 207 °C

Q: For `C[C@@H](OC(=O)Nc1ccc(-c2c(C#N)c3ccc(O[C@@H]4CCOC4)cc3n2C2CCC2)cc1)C(F)(F)F` [Compound 2853], which melting point is on record?
A: 189 to 190 °C

Q: Which melting point does the source give for `COCCOc1ccc2c(C#N)c(-c3ccc(NC(=O)O[C@H](C)c4ccc(F)cc4)cc3)n(C(C)C)c2c1` [Compound 2854] here?
A: 113 to 116 °C

Q: Which melting point does the source give for `CC(C)NC(=O)Nc1ccc(-c2c(C#N)c3ccc(N4CCOCC4)cc3n2C2CC2)cc1` [Compound 2855] here?
A: 264 °C

Q: With `CC(C)OC(=O)Nc1ccc(-c2c(C#N)c3ccc(N4CCOCC4)cc3n2C2CC2)cc1` [Compound 2856] as the compound, how does the melting point read?
A: 220 to 227 °C

Q: With `C[C@@H](OC(=O)Nc1ccc(-c2c(C#N)c3ccc(N4CCOCC4)cc3n2C2CC2)cc1)C1CC1` [Compound 2857] as the compound, how does the melting point read?
A: 176 to 179 °C

Q: Which melting point does the source give for `N#Cc1c(-c2ccc(NC(=O)NC3CCC3)cc2)n(C2CC2)c2cc(N3CCOCC3)ccc12` [Compound 2858] here?
A: 230 to 232 °C

Q: For `CC(C)[C@H](C)OC(=O)Nc1ccc(-c2c(C#N)c3ccc(OC4COCOC4)cc3n2C2CCC2)cc1` [Compound 2859], which melting point is on record?
A: 200 to 201 °C

Q: With `N#Cc1c(-c2ccc(NC(=O)OCC3CC3)cc2)n(C2CCC2)c2cc(OC3COCOC3)ccc12` [Compound 2860] as the compound, how does the melting point read?
A: 197 to 198 °C

Q: For `CC(OC(=O)Nc1ccc(-c2c(C#N)c3ccc(OC4COCOC4)cc3n2C2CCC2)cc1)C(C)(C)C` (stereo not shown) [Compound 2861], which melting point is on record?
A: 221 to 232 °C (dec.)

Q: Which melting point does the source give for `CC(C)NC(=O)Nc1ccc(-c2c(C#N)c3ccc(N4CCOCC4)cc3n2C2CCC2)cc1` [Compound 2862] here?
A: 234 to 235 °C

Q: Which melting point does the source give for `N#Cc1c(-c2ccc(NC(=O)NC3CCC3)cc2)n(C2CCC2)c2cc(N3CCOCC3)ccc12` [Compound 2863] here?
A: 172 °C (dec.)

Q: With `C[C@@H](OC(=O)Nc1ccc(-c2c(C#N)c3ccc(N4CCOCC4)cc3n2C2CCC2)cc1)C(F)(F)F` [Compound 2864] as the compound, how does the melting point read?
A: 220 to 222 °C

Q: Which melting point does the source give for `C[C@@H](OC(=O)Nc1ccc(-c2c(C#N)c3ccc(N4CCOCC4)cc3n2C2CCC2)cc1)c1ccc(F)cc1` [Compound 2865] here?
A: 163 to 165 °C

Q: For `C[C@@H](OC(=O)Nc1ccc(-c2c(C#N)c3ccc(N4CCOCC4)cc3n2C2CCC2)cc1)C1CC1` [Compound 2866], which melting point is on record?
A: 194 to 195 °C

Q: With `C[C@@H](OC(=O)Nc1ccc(-c2c(C#N)c3ccc(OC4CCOCC4)cc3n2C2CC2)cc1)c1ccc(F)cc1` [Compound 2869] as the compound, how does the melting point read?
A: 108 to 111 °C

Q: With `CC(OC(=O)Nc1ccc(-c2c(C#N)c3ccc(OC4CCOCC4)cc3n2C2CCC2)cc1)C1CCC1` (stereo not shown) [Compound 2871] as the compound, how does the melting point read?
A: 198 to 199 °C

Q: For `N#Cc1c(-c2ccc(NC(=O)OC3CCC3)cc2)n(C2CCC2)c2cc(OC3COCOC3)ccc12` [Compound 2872], which melting point is on record?
A: 215 to 216 °C
